Results taken from patent US8334315B2, “Substituted aromatic carboxamide and urea derivatives as vanilloid receptor ligands” (Gruenenthal GmbH, priority 2009, dated 2012).

Legend:
[1] = molecular target: T1, hVR1 (Homo sapiens, UniProt Q8NER1); experiment: Functional test on human VR1, 45° C. stimulus; assay type: cell-based, human being; settings: for IC50: read-out: IC50 (human being) [nM], 45° C.
T1 construct: expressed in transfected cells; host or cells: CHO K1 cells (ECACC), stably transfected
T1 sequence (Q8NER1 whole entry): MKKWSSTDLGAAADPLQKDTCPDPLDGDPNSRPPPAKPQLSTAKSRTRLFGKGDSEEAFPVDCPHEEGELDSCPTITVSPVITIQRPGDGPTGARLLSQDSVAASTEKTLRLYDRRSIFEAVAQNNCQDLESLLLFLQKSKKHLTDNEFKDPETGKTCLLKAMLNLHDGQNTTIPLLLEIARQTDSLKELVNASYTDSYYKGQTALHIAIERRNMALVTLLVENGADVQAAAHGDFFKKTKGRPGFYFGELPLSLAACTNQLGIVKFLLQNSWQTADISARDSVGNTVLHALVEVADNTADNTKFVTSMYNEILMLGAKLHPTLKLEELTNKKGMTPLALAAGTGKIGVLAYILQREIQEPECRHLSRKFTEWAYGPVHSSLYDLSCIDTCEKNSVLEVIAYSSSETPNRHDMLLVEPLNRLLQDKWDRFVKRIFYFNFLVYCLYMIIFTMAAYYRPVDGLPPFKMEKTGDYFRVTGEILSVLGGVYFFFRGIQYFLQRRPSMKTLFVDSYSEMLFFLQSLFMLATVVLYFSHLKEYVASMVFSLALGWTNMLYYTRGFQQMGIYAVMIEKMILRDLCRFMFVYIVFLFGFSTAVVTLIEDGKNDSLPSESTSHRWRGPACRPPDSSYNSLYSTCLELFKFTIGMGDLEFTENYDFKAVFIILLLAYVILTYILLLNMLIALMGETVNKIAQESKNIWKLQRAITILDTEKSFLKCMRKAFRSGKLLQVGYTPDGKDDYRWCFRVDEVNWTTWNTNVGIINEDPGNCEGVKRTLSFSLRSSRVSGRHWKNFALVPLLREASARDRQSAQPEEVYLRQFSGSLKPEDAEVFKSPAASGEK

[2] = molecular target: T1, hVR1; experiment: Functional test on VR1, FLIPR Ca2+ influx in transfected CHO K1 cells, capsaicin; assay type: cell-based, human being; settings: capsaicin (Cap); includes values given in brackets after pAG; read-out: Ki (human being) [nM] Cap
Source text: In the process, the Ca^2+ influx is quantified in the FLIPR assay with the aid of a Ca^2+-sensitive dye (type Fluo-4, Molecular Probes Europe BV, Leiden, the Netherlands) in a fluorescent imaging plate reader (FLIPR, Molecular Devices, Sunnyvale, USA), as described hereinafter.
II. Functional Tests Carried Out on the Vanilloid Receptor (VR1)
The agonistic or antagonistic effect of the substances to be tested on the vanilloid receptor 1 (VR1) can also be determined using the following assay. In this assay, the influx of Ca^2+ through the channel is quantified with the aid of a Ca^2+-sensitive dye (type Fluo-4, Molecular Probes Europe BV, Leiden, the Netherlands) in a fluorescent imaging plate reader (FLIPR, Molecular Devices, Sunnyvale, USA).
Chinese hamster ovary cells (CHO K1 cells, European Collection of Cell Cultures (ECACC) United Kingdom) are stably transfected with the VR1 gene. For functional testing, these cells are plated out on poly-D-lysine-coated black 96-well plates having a clear base (BD Biosciences, Heidelberg, Germany) at a density of 25,000 cells/well. The cells are incubated overnight at 37° C. and 5% CO2 in a culture medium (Ham's F12 nutrient mixture, 10% by volume of FCS (foetal calf serum), 18 μg/ml of L-proline). The next day the cells are incubated with Fluo-4 (Fluo-4 2 μM, 0.01% by volume of Pluronic F127, Molecular Probes in HBSS (Hank's buffered saline solution), Gibco Invitrogen GmbH, Karlsruhe, Germany) for 30 minutes at 37° C. Subsequently, the plates are washed three times with HBSS buffer and after further incubation for 15 minutes at RT used for Ca^2+ measurement in a FLIPR assay. The Ca^2+-dependent fluorescence is measured before and after the addition of the substances to be tested (λex wavelength=488 nm, λem=540 nm). Quantification is carried out by measuring the highest fluorescence intensity (FC, fluorescence counts) over time.
The FLIPR protocol consists of 2 substance additions. First the compounds to be tested (10 μM) are pipetted onto the cells and the Ca^2+ influx is compared with the control (capsaicin 10 μM) (% activation based on the Ca^2+ signal after the addition of 10 μM of capsaicin). After 5 minutes' incubation, 100 nM of capsaicin are applied and the Ca^2+ influx is also determined.
Desensitising agonists and antagonists led to suppression of the Ca^2+ influx. The % inhibition is calculated compared to the maximum achievable inhibition with 10 μM of capsaicin.
Starting from the percentage displacement caused by different concentrations of the compounds to be tested of general formula I, IC50 inhibitory concentrations which cause a 50-per cent displacement of capsaicin were calculated. Ki values for the test substances were obtained by conversion by means of the Cheng-Prusoff equation (Cheng, Prusoff; Biochem. Pharmacol. 22, 3099-3108, 1973).
The affinity of the compounds according to the invention for the vanilloid receptor 1 (VR1/TRPV1 receptor) was determined as described hereinbefore (pharmacological methods I and II respectively).

[3] = read-out: IC50 (human being), 45° C.: inhibition (as a percentage)

Structure (SMILES) | IC50 [1] [nM] | inhibition at 2.5 µM [1, 3] [%] | Ki [2] [nM] | inhibition at 10 µM ([1]; @ 10 μM, read-out: IC50 (human being), 45° C.: inhibition (as a percentage)) [%]
CC(C(=O)NCc1cc(C(F)(F)F)nn1-c1cccc(Cl)c1)c1cccc2cc(F)ccc12 (stereo not shown) [Example 211, N-((1-(3-chlorophenyl)-3-(trifluoromethyl)-1H-pyrazol-5-yl)methyl)-2-(6-fluornaphthalen-1-yl)propanamide] | 154 |  |  | 
O=C(NCc1cc(C(F)(F)F)nn1-c1cccc(Cl)c1)Nc1ccc2c(c1)OCO2 [Example 83, 1-(Benzo[d][1,3]dioxol-5-yl)-3-((1-(3-chlorophenyl)-3-(trifluoromethyl)-1H-pyrazol-5-yl)methyl)urea] |  | 16 | 50.7 | 
CC(C)(C)c1cc(CNC(=O)Nc2cccc3cccnc23)n(-c2cccc(Cl)c2)n1 [Example 107, 1-((3-tert-butyl-1-(3-chlorophenyl)-1H-pyrazol-5-yl)methyl)-3-(quinolin-8-yl)urea] | 375 |  | 22.4 | 
CC(C)(C)c1cc(CNC(=O)Nc2cccc3ccc(O)cc23)n(-c2cccc(Cl)c2)n1 [Example 101, 1-((3-tert-butyl-1-(3-chlorophenyl)-1H-pyrazol-5-yl)methyl)-3-(7-hydroxynaphthalen-1-yl)urea] |  | 46 | 0.5 | 
CC(C)(C)c1cc(CNC(=O)Nc2cc(F)cc3[nH]ncc23)n(-c2ccccn2)n1 [Example 216, 1-((3-tert-butyl-1-(pyridin-2-yl)-1H-pyrazol-5-yl)methyl)-3-(6-fluoro-1H-indazol-4-yl)urea] | 2120 |  | 54 | 
O=C(NCc1cc(C(F)(F)F)nn1-c1cccc(Cl)c1)Nc1ccc2scnc2c1 [Example 97, 1-(benzo[d]thiazol-5-yl)-3-((1-(3-chlorophenyl)-3-(trifluoromethyl)-1H-pyrazol-5-yl)methyl)urea] | 396 |  | 4.9 | 

Other lines, results leading:

IC50 [1] [nM] | inhibition at 2.5 µM [1, 3] [%] | Ki [2] [nM] | inhibition at 10 µM ([1]; @ 10 μM, read-out: IC50 (human being), 45° C.: inhibition (as a percentage)) [%] | Structure (SMILES)
686 |  | 4 |  | CC(C(=O)NCc1cc(C(F)(F)F)nn1-c1cccc(Cl)c1)c1cccc2c1CC=C2 (stereo not shown) [Example 24, N-((1-(3-chlorophenyl)-3-(trifluoromethyl)-1H-pyrazol-5-yl)methyl)-2-(1H-inden-7-yl)propanamide]
 |  | 2.4 | 14 | CC(C(=O)NCc1cc(C(F)(F)F)nn1-c1cccc(Cl)c1)c1cccc2c1CCC2O (stereo not shown) [Example 207, N-((1-(3-chlorophenyl)-3-(trifluoromethyl)-1H-pyrazol-5-yl)methyl)-2-(1-hydroxy-2,3-dihydro-1H-inden-4-yl)propanamide]
298 |  | 62.6 |  | CC(C(=O)NCc1cc(C(F)(F)F)nn1-c1cccc(Cl)c1)c1cccc2c1CC(O)C2 (stereo not shown) [Example 208, N-((1-(3-chlorophenyl)-3-(trifluoromethyl)-1H-pyrazol-5-yl)methyl)-2-(2-hydroxy-2,3-dihydro-1H-inden-4-yl)propanamide]
 | 48 | 0.2 |  | O=C(NCc1cc(C(F)(F)F)nn1-c1cccc(Cl)c1)Nc1cccc2ccc(O)cc12 [Example 102, 1-((1-(3-chlorophenyl)-3-(trifluoromethyl)-1H-pyrazol-5-yl)methyl)-3-(7-hydroxynaphthalen-1-yl)urea]
264 |  | 0.07 |  | CC(C(=O)NCc1cc(C(F)(F)F)nn1-c1cccc(Cl)c1)c1cccc2cnc(Cl)cc12 (stereo not shown) [Example 213, 2-(3-chloroisoquinolin-5-yl)-N-((1-(3-chlorophenyl)-3-(trifluoromethyl)-1H-pyrazol-5-yl)methyl)propanamide]
110 |  | 0.4 |  | O=C(NCc1cc(C(F)(F)F)nn1-c1cccc(Cl)c1)Nc1cccc2cnccc12 [Example 110, 1-((1-(3-chlorophenyl)-3-(trifluoromethyl)-1H-pyrazol-5-yl)methyl)-3-(isoquinolin-5-yl)urea]
626 |  | 8.3 |  | COc1ccc2cccc(C(C)C(=O)NCc3cc(C(F)(F)F)nn3-c3cccc(Cl)c3)c2c1 (stereo not shown) [Example 212, N-((1-(3-chlorophenyl)-3-(trifluoromethyl)-1H-pyrazol-5-yl)methyl)-2-(7-methoxynaphthalen-1-yl)propanamide]
